# Measured values from the supplement of paper PMC10307832.
# Tests used:
# Assay in all cases: relative viability (nuclei count vs DMSO), 5 days (fraction); higher = more cells survive
# TPCA-1 + Pictilisib = compound: C1=CC(=CC=C1C2=CC(=C(S2)NC(=O)N)C(=O)N)F [TPCA-1] + CS(=O)(=O)N1CCN(Cc2cc3nc(-c4cccc5[nH]ncc45)nc(N4CCOCC4)c3s2)CC1 [Pictilisib] (partner 1 µM)
# In short: (§1)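 Relative viability is defined as nuclei in treated wells over nuclei in vehicle wells. Duplicate plates were run and medians reported. Lung cancer cell lines in 1536-well plates were dosed by pin tool one day after seeding, with one drug or with a fixed anchor-drug dose plus five library-drug doses (not always all listed) in √10 steps, and nuclei were counted after 5 days.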
# [1] = compound: C1/C(=C\C2=CC=CS2)/C(=O)/C(=C/C3=CC=CS3)/C1 + CC(=O)Nc1cccc(-n2c(=O)n(C3CC3)c(=O)c3c(Nc4ccc(I)cc4F)n(C)c(=O)c(C)c32)c1 [Trametinib] (partner 0.02 µM)
# In short: as §1
# TPCA-1 + Olaparib = compound: C1=CC(=CC=C1C2=CC(=C(S2)NC(=O)N)C(=O)N)F [TPCA-1] + O=C(c1cc(Cc2n[nH]c(=O)c3ccccc23)ccc1F)N1CCN(C(=O)C2CC2)CC1 [Olaparib] (partner 8 µM)
# In short: as §1
# [2] = compound: C1/C(=C\C2=CC=CS2)/C(=O)/C(=C/C3=CC=CS3)/C1 + C[C@@H](Oc1cc(-c2cnn(C3CCNCC3)c2)cnc1N)c1c(Cl)ccc(F)c1Cl [Crizotinib] (partner 1 µM)
# In short: as §1
Cell Line,relative viability (TPCA-1 + Pictilisib; first compound 0.04 µM),relative viability (TPCA-1 + Pictilisib; first compound 0.1265 µM),relative viability (TPCA-1 + Pictilisib; first compound 0.4 µM),relative viability (TPCA-1 + Pictilisib; first compound 1.265 µM),relative viability (TPCA-1 + Pictilisib; first compound 4 µM),relative viability ([1]; first compound 0.2 µM),relative viability ([1]; first compound 0.6325 µM),relative viability ([1]; first compound 2 µM),relative viability ([1]; first compound 6.325 µM),relative viability ([1]; first compound 20 µM),relative viability (TPCA-1 + Olaparib; first compound 0.04 µM),relative viability (TPCA-1 + Olaparib; first compound 0.1265 µM),relative viability (TPCA-1 + Olaparib; first compound 0.4 µM),relative viability (TPCA-1 + Olaparib; first compound 1.265 µM),relative viability (TPCA-1 + Olaparib; first compound 4 µM),relative viability ([2]; first compound 0.2 µM),relative viability ([2]; first compound 0.6325 µM),relative viability ([2]; first compound 2 µM),relative viability ([2]; first compound 6.325 µM),relative viability ([2]; first compound 20 µM)
SK-MES-1,0.403,0.316,0.305,0.255,0.276,0.601,0.58,0.549,0.502,0.568,0.696,0.577,0.801,0.611,0.369,0.978,1.04,0.903,0.879,0.917
NCI-H1355,0.487,0.325,0.427,0.227,0.224,0.42,0.43,0.457,0.341,0.407,0.8,0.633,0.796,0.694,0.396,1.19,1.05,1.03,0.943,1.08
NCI-H838,0.547,0.429,0.452,0.325,0.387,0.491,0.516,0.488,0.448,0.44,0.867,0.718,0.826,0.557,0.406,0.896,0.889,0.807,0.784,0.858
LK-2,0.721,0.349,0.615,0.662,0.442,0.643,0.968,0.809,0.712,0.707,0.68,0.371,0.516,0.741,0.335,0.249,0.225,0.218,0.215,0.242
NCI-H1650,0.7,0.537,0.592,0.423,0.422,0.619,0.679,0.548,0.627,0.516,0.893,0.826,0.758,0.822,0.863,1.16,1.02,1.14,0.605,0.923
NCI-H322M,0.587,0.494,0.529,0.532,0.464,0.519,0.494,0.474,0.433,0.517,0.78,0.785,0.77,0.73,0.41,0.876,1.03,0.98,0.743,0.922
NCI-H661,0.467,0.325,0.452,0.347,0.321,0.593,0.602,0.585,0.523,0.549,0.751,0.748,0.77,0.721,0.758,1.02,0.986,0.948,0.947,1.02
NCI-H2228,0.379,0.358,0.402,0.454,0.186,0.559,0.517,0.414,0.43,0.424,0.731,0.624,0.789,0.56,0.432,0.669,0.528,0.515,0.374,0.441
NCI-H520,0.351,0.242,0.307,0.319,0.319,0.629,0.789,0.665,,0.677,0.409,0.353,0.391,0.373,0.344,0.882,0.966,0.715,0.655,0.751
NCI-H441,0.565,0.377,0.4,0.216,0.195,0.607,0.429,0.552,0.446,0.418,0.461,0.454,0.53,0.443,0.436,0.967,0.786,1.06,0.729,0.604
